Data reported in patent EP4596574A1, “GLP-1/GCG/GIP TRIPLE-RECEPTOR AGONIST AND USE THEREOF” (Sunshine Lake Pharma Co., Ltd., priority 2022, dated 2024).
Starred links: 1 amine or outer side, 2 acyl side, 3 side chain; linkers in the order of their positions; H or OH if unused. Non-standard residues stand in square brackets, D forms with d. Residues, ends and D or L forms follow the SMILES beside them. Groups on a side chain read outwards from the residue. *: point of attachment. C18 diacid = O=C(O)CCCCCCCCCCCCCCCCC(=O)*; αMePhe(2-F) = C[C@](N)(Cc1ccccc1F)C(=O)O; γGlu = O=C(O)[C@H](CCC(=O)[*:2])N[*:1]; AEEA = NCCOCCOCC(=O)O; Aib = CC(C)(N)C(=O)O

Assays:
Type in all cases: cell-based
[1] = molecular target: T1, GIPR (Homo sapiens, UniProt P48546); assay: In vitro cell activity, cAMP production in HEK293 cells expressing GIPR; settings: HEK293-GIPR cells, cAMP; read-out: GIPR (EC50)
T1 construct: expressed in transfected cells; host or cells: HEK293 (HEK293-GIPR)
T1 sequence (P48546 22-466): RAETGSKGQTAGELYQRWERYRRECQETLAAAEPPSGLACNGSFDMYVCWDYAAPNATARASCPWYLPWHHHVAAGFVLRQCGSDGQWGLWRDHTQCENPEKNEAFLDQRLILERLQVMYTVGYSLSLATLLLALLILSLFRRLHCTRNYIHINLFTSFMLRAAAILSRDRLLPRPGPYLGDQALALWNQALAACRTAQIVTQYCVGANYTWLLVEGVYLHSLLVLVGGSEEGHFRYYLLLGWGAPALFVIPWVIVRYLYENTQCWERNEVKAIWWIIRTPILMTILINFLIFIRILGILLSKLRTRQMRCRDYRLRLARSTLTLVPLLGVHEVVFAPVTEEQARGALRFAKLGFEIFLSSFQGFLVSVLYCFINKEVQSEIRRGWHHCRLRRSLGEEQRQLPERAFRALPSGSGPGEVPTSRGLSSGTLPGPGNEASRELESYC
Procedure, shortened: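 HEK293 cells expressing human GIPR, thawed and diluted to 4×10^5 cells/mL, are stimulated with test compound. cAMP is measured by HTRF competition between cAMP-d2 and anti-cAMP cryptate. EC50 comes from a four-parameter nonlinear fit of signal ratio against concentration.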

[2] = molecular target: T2, GLP-1R (Homo sapiens, UniProt P43220); assay: In vitro cell activity, cAMP production in HEK293 cells expressing GLP-1R; settings: HEK293-GLP-1R cells, cAMP; read-out: GLP-1R (EC50)
T2 construct: expressed in transfected cells; host or cells: HEK293 (HEK293-GLP-1R)
T2 sequence (P43220 24-463, species assumed): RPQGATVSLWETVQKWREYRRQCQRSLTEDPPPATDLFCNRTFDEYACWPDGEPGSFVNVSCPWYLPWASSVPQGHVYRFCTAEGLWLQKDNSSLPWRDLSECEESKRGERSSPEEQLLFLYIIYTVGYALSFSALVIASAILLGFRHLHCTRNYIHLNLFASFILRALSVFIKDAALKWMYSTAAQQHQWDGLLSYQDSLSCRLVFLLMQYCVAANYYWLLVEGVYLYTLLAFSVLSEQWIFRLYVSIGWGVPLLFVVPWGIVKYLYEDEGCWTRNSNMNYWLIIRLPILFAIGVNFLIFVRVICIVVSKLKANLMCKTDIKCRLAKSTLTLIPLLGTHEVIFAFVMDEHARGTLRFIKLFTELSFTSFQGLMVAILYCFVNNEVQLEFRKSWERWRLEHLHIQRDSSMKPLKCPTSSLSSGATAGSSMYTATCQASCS
Procedure, shortened: (§1)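 HEK293 transfectants, 4×10^5 cells/mL, 384-well. Detection: cAMP-d2 + anti-cAMP cryptate 1:1, RT 1 h dark or 4 °C o/n. Read 665/620 nm; 4-parameter nonlinear fit → EC50.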

[3] = molecular target: T3, GCGR (Homo sapiens, UniProt P47871); assay: In vitro cell activity, cAMP production in HEK293 cells expressing GCGR; settings: HEK293-GCGR cells, cAMP; read-out: GCGR (EC50)
T3 construct: expressed in transfected cells; host or cells: HEK293 (HEK293-GCGR)
T3 sequence (P47871 26-477, species assumed): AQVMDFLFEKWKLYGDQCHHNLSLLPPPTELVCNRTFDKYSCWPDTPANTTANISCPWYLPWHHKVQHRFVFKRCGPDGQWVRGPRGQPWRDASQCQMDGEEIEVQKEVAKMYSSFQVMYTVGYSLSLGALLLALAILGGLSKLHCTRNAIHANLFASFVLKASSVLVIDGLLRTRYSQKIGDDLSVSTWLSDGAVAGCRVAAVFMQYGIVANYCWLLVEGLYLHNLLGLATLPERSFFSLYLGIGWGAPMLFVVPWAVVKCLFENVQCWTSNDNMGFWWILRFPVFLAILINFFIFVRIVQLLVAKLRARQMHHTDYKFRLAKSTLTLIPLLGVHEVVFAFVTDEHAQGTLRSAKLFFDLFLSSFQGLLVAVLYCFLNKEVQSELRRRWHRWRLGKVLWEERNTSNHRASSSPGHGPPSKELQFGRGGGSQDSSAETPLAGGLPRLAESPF
Procedure, shortened: as §1

| Compound | EC50 [1] [nM] | EC50 [2] [nM] | EC50 [3] [nM] |
| --- | --- | --- | --- |
| CC[C@H](C)[C@H](NC(=O)[C@H](CCC(=O)O)NC(=O)[C@H](CC(=O)O)NC(=O)[C@H](CC(C)C)NC(=O)[C@H](CC(C)C)NC(=O)[C@@H](NC(=O)[C@H](CO)NC(=O)[C@H](Cc1ccc(O)cc1)NC(=O)[C@H](CC(=O)O)NC(=O)[C@H](CO)NC(=O)[C@@H](NC(=O)[C@](C)(Cc1ccccc1F)NC(=O)[C@@H](NC(=O)CNC(=O)[C@H](CCC(N)=O)NC(=O)C(C)(C)NC(=O)[C@@H](N)Cc1ccc(O)cc1)[C@@H](C)O)[C@@H](C)O)[C@@H](C)CC)C(=O)N[C@@H](C)C(=O)N[C@@H](CCC(N)=O)C(=O)N[C@@H](CCCCNC(=O)COCCOCCNC(=O)COCCOCCNC(=O)CC[C@H](NC(=O)CCCCCCCCCCCCCCCCCCC(=O)O)C(=O)O)C(=O)N[C@@H](C)C(=O)N[C@@H](Cc1ccccc1)C(=O)N[C@H](C(=O)N[C@@H](CCC(=O)O)C(=O)N[C@@H](Cc1ccc(O)cc1)C(=O)N[C@@H](CC(C)C)C(=O)N[C@H](C(=O)N[C@@H](C)C(=O)NCC(=O)NCC(=O)N1CCC[C@H]1C(=O)N[C@@H](CO)C(=O)N[C@@H](CO)C(=O)NCC(=O)N[C@@H](C)C(=O)N1CCC[C@H]1C(=O)N1CCC[C@H]1C(=O)N1CCC[C@H]1C(=O)N[C@@H](CO)C(=O)O)[C@@H](C)CC)[C@@H](C)CC [HEC-PT99] | 0.176 | 0.278 | 12.3 |
| CC[C@H](C)[C@H](NC(=O)[C@H](Cc1ccccc1)NC(=O)[C@H](C)NC(=O)C(C)(C)NC(=O)[C@H](CCC(N)=O)NC(=O)[C@H](CCCNC(=N)N)NC(=O)[C@@H](NC(=O)[C@H](CCCCN)NC(=O)[C@H](CC(=O)O)NC(=O)[C@H](CCCCNC(=O)COCCOCCNC(=O)CC[C@H](NC(=O)CCCCCCCCCCCCCCCCC(=O)O)C(=O)O)NC(=O)[C@H](CC(C)C)NC(=O)[C@@H](NC(=O)[C@H](CO)NC(=O)[C@H](Cc1ccc(O)cc1)NC(=O)[C@H](CC(=O)O)NC(=O)[C@H](CO)NC(=O)[C@@H](NC(=O)[C@](C)(Cc1ccccc1F)NC(=O)[C@@H](NC(=O)CNC(=O)[C@H](CCC(N)=O)NC(=O)C(C)(C)NC(=O)[C@@H](N)Cc1ccc(O)cc1)[C@@H](C)O)[C@@H](C)O)[C@@H](C)CC)[C@@H](C)CC)C(=O)N[C@@H](CCC(=O)O)C(=O)N[C@@H](Cc1ccc(O)cc1)C(=O)N[C@@H](CC(C)C)C(=O)N[C@@H](CC(C)C)C(=O)N[C@@H](C)C(=O)NCC(=O)NCC(=O)N1CCC[C@H]1C(=O)N[C@@H](CO)C(=O)N[C@@H](CO)C(=O)NCC(=O)N[C@@H](C)C(=O)N1CCC[C@H]1C(=O)N1CCC[C@H]1C(=O)N1CCC[C@H]1C(=O)N[C@@H](CO)C(N)=O [HEC-PT145] (H-Y[Aib]QGT[αMePhe(2-F)]TSDYSILK([AEEA-γGlu-C18 diacid])DKIRQ[Aib]AFIEYLLAGGPSSGAPPPS-NH2) | 0.0316 | 0.126 | 0.066 |
| CC[C@H](C)[C@H](NC(=O)[C@H](Cc1ccccc1)NC(=O)[C@H](C)NC(=O)[C@H](CCCCNC(=O)COCCOCCNC(=O)CC[C@H](NC(=O)CCCCCCCCCCCCCCCCC(=O)O)C(=O)O)NC(=O)[C@H](CCC(N)=O)NC(=O)[C@H](CCCNC(=N)N)NC(=O)[C@@H](NC(=O)[C@H](CCCNC(=N)N)NC(=O)[C@H](CC(=O)O)NC(=O)[C@H](CC(C)C)NC(=O)[C@H](CC(C)C)NC(=O)[C@@H](NC(=O)[C@H](CO)NC(=O)[C@H](Cc1ccc(O)cc1)NC(=O)[C@H](CC(=O)O)NC(=O)[C@H](CO)NC(=O)[C@@H](NC(=O)[C@](C)(Cc1ccccc1F)NC(=O)[C@@H](NC(=O)CNC(=O)[C@H](CCC(N)=O)NC(=O)C(C)(C)NC(=O)[C@@H](N)Cc1ccc(O)cc1)[C@@H](C)O)[C@@H](C)O)[C@@H](C)CC)[C@@H](C)CC)C(=O)N[C@@H](CCC(=O)O)C(=O)N[C@@H](Cc1ccc(O)cc1)C(=O)N[C@@H](CC(C)C)C(=O)N[C@@H](CC(C)C)C(=O)N[C@@H](CCC(=O)O)C(=O)NCC(=O)NCC(=O)N1CCC[C@H]1C(=O)N[C@@H](CO)C(=O)N[C@@H](CO)C(=O)NCC(=O)N[C@@H](C)C(=O)N1CCC[C@H]1C(=O)N1CCC[C@H]1C(=O)N1CCC[C@H]1C(=O)N[C@@H](CO)C(=O)O [HEC-PT126] | 0.0589 | 0.861 | 0.0319 |
| CC[C@H](C)[C@H](NC(=O)[C@H](CO)NC(=O)[C@H](Cc1ccc(O)cc1)NC(=O)[C@H](CC(=O)O)NC(=O)[C@H](CO)NC(=O)[C@@H](NC(=O)[C@](C)(Cc1ccccc1F)NC(=O)[C@@H](NC(=O)CNC(=O)[C@H](CCC(N)=O)NC(=O)C(C)(C)NC(=O)[C@@H](N)Cc1ccc(O)cc1)[C@@H](C)O)[C@@H](C)O)C(=O)N[C@@H](CC(C)C)C(=O)N[C@@H](CC(C)C)C(=O)N[C@@H](CC(=O)O)C(=O)N[C@@H](CCC(=O)O)C(=O)N[C@@H](CCCCNC(=O)COCCOCCNC(=O)CC[C@H](NC(=O)CCCCCCCCCCCCCCCCC(=O)O)C(=O)O)C(=O)N[C@@H](CCCNC(=N)N)C(=O)N[C@@H](CCC(N)=O)C(=O)N[C@@H](CCCNC(=N)N)C(=O)N[C@@H](C)C(=O)N[C@@H](Cc1ccccc1)C(=O)N[C@H](C(=O)N[C@@H](CCC(=O)O)C(=O)N[C@@H](Cc1ccc(O)cc1)C(=O)N[C@@H](CC(C)C)C(=O)N[C@@H](CC(C)C)C(=O)N[C@@H](C)C(=O)NCC(=O)NCC(=O)N1CCC[C@H]1C(=O)N[C@@H](CO)C(=O)N[C@@H](CO)C(=O)NCC(=O)N[C@@H](C)C(=O)N1CCC[C@H]1C(=O)N1CCC[C@H]1C(=O)N1CCC[C@H]1C(=O)N[C@@H](CO)C(=O)O)C(C)C [HEC-PT135] | 0.283 | 0.19 | 0.902 |
| CC[C@H](C)[C@H](NC(=O)[C@H](Cc1ccccc1)NC(=O)[C@H](C)NC(=O)C(C)(C)NC(=O)[C@H](CCC(N)=O)NC(=O)[C@H](CCCNC(=N)N)NC(=O)[C@@H](NC(=O)[C@H](CCCCN)NC(=O)[C@H](CC(=O)O)NC(=O)[C@H](CCCCNC(=O)COCCOCCNC(=O)CC[C@H](NC(=O)CCCCCCCCCCCCCCCCC(=O)O)C(=O)O)NC(=O)[C@H](CC(C)C)NC(=O)[C@@H](NC(=O)[C@H](CO)NC(=O)[C@H](Cc1ccc(O)cc1)NC(=O)[C@H](CC(=O)O)NC(=O)[C@H](CO)NC(=O)[C@@H](NC(=O)[C@](C)(Cc1ccccc1F)NC(=O)[C@@H](NC(=O)CNC(=O)[C@H](CCC(N)=O)NC(=O)C(C)(C)NC(=O)[C@@H](N)Cc1ccc(O)cc1)[C@@H](C)O)[C@@H](C)O)[C@@H](C)CC)[C@@H](C)CC)C(=O)N[C@@H](CCC(=O)O)C(=O)N[C@@H](Cc1ccc(O)cc1)C(=O)N[C@@H](CC(C)C)C(=O)N[C@@H](CC(C)C)C(=O)N[C@@H](CCC(=O)O)C(=O)NCC(=O)NCC(=O)N1CCC[C@H]1C(=O)N[C@@H](CO)C(=O)N[C@@H](CO)C(=O)NCC(=O)N[C@@H](C)C(=O)N1CCC[C@H]1C(=O)N1CCC[C@H]1C(=O)N1CCC[C@H]1C(=O)N[C@@H](CO)C(N)=O [HEC-PT144] | 0.0221 | 0.173 | 0.0366 |
| CC[C@H](C)[C@H](NC(=O)[C@H](Cc1ccccc1)NC(=O)[C@H](CCC(=O)O)NC(=O)[C@H](CCCCNC(=O)COCCOCCNC(=O)CC[C@H](NC(=O)CCCCCCCCCCCCCCCCC(=O)O)C(=O)O)NC(=O)[C@H](CCC(N)=O)NC(=O)[C@H](CCCNC(=N)N)NC(=O)[C@@H](NC(=O)[C@H](CCCNC(=N)N)NC(=O)[C@H](CC(=O)O)NC(=O)[C@H](CC(C)C)NC(=O)[C@H](CC(C)C)NC(=O)[C@@H](NC(=O)[C@H](CO)NC(=O)[C@H](Cc1ccc(O)cc1)NC(=O)[C@H](CC(=O)O)NC(=O)[C@H](CO)NC(=O)[C@@H](NC(=O)[C@](C)(Cc1ccccc1F)NC(=O)[C@@H](NC(=O)CNC(=O)[C@H](CCC(N)=O)NC(=O)C(C)(C)NC(=O)[C@@H](N)Cc1ccc(O)cc1)[C@@H](C)O)[C@@H](C)O)[C@@H](C)CC)[C@@H](C)CC)C(=O)N[C@@H](CCC(=O)O)C(=O)N[C@@H](Cc1c[nH]c2ccccc12)C(=O)N[C@@H](CC(C)C)C(=O)N[C@@H](CC(C)C)C(=O)N[C@@H](C)C(=O)NCC(=O)NCC(=O)N1CCC[C@H]1C(=O)N[C@@H](CO)C(=O)N[C@@H](CO)C(=O)NCC(=O)N[C@@H](C)C(=O)N1CCC[C@H]1C(=O)N1CCC[C@H]1C(=O)N1CCC[C@H]1C(=O)N[C@@H](CO)C(=O)O [HEC-PT125] (H-Y[Aib]QGT[αMePhe(2-F)]TSDYSILLDRIRQK([AEEA-γGlu-C18 diacid])EFIEWLLAGGPSSGAPPPS-OH) | 0.0217 | 0.123 | 0.0269 |
